Earlier results as cited in US6852718B2, “Phenylsulphonylipiperazinyl derivatives as 5-HT receptor ligands” (Merck Sharp & Dohme Ltd, priority 2000, dated 2005).

Biological target: human dopamine D2 receptor (Homo sapiens, UniProt P14416)
Sequence (P14416 whole entry): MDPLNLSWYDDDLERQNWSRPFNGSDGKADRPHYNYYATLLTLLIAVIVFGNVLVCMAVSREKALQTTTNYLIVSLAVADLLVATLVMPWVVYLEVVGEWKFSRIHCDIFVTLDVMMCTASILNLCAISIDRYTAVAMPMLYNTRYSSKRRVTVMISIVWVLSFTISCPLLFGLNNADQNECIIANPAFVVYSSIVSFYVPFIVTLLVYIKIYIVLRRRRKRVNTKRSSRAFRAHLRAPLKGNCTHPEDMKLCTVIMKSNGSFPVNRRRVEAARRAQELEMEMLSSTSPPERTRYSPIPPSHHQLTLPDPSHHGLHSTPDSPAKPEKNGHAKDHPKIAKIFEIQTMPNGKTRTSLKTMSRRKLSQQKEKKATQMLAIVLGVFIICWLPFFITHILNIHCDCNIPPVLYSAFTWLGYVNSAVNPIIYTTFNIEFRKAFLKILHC

activity at the human dopamine D2 receptor: essentially devoid of activity
SMILES: COc1cccc(C(O)C2CCN(CCc3ccc(F)cc3)CC2)c1OC (stereo not drawn) [MDL-100,907, (+)-α-(2,3-dimethoxyphenyl)-1-[2-(4-fluorophenyl)-ethyl]-4-piperidinemethanol]
